Measurements reported in patent publication US20260022142A1, “MACROCYCLIC IMMUNOMODULATORS” (Bristol-Myers Squibb Company, priority 2022, published 2026).
Numbered stars: 1 amine (or outer) side, 2 acyl side, 3 side chain; on linkers, the order of the positions; unused ones are H or OH. Bridge positions count the residues as written; N and C are the ends. Square brackets hold non-standard residues; d marks the D form. Peptide text beside a SMILES is read from it. * marks the point of attachment. ξ: configuration not given here. Phe(3-CF3) = N[C@@H](Cc1cccc(C(F)(F)F)c1)C(=O)O; Phe(4-COOH) = N[C@@H](Cc1ccc(C(=O)O)cc1)C(=O)O; Bip = N[C@@H](Cc1ccc(-c2ccccc2)cc1)C(=O)O; NH(CH2)14COOH = O=C(O)CCCCCCCCCCCCCCN*; Phe(3-Me) = Cc1cccc(C[C@H](N)C(=O)O)c1; γGlu = O=C(O)[C@H](CCC(=O)[*:2])N[*:1]; Val(3-OH) = CC(C)(O)[C@H](N)C(=O)O; Val(3-F) = CC(C)(F)[C@H](N)C(=O)O; Cha = N[C@@H](CC1CCCCC1)C(=O)O; Thr(3ξ) = CC(O)[C@H](N)C(=O)O; 12Ado = NCCCCCCCCCCCC(=O)O; Carboxymethyl = O=C(O)C*; Orn = NCCC[C@H](N)C(=O)O; Aun = NCCCCCCCCCCC(=O)O; Dab = NCC[C@H](N)C(=O)O; Dap = NC[C@H](N)C(=O)O; AEEA = NCCOCCOCC(=O)O

Target: T1, PD-1/PD-L1 interaction (PE-labeled human PD-L1-Ig binding to Jurkat cell line over-expressing human PD-1) (Homo sapiens, UniProt Q15116)
T1 construct: expressed in transfected cells; host or cells: Jurkat
Experiment: Jurkat-PD-1 Cell Binding High-Content Screening Assay (CBA)
Assay type: cell-based
Details: Jurkat cell line over-expressing human PD-1; PE-labeled PD-L1-Ig 20 nM final; read-out: Jurkat hPD1-PDL1 IC50
Outline: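 Jurkat cells stably over-expressing human PD-1 were seeded in DMEM with 10% fetal calf serum and pre-incubated with compound for 2 h at 37° C. PE-labeled human PD-L1-Ig was then added at 20 nM final for 1 hour, after which cells were fixed with paraformaldehyde, Hoechst-stained and imaged by high-content microscopy.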

T1 sequence (Q15116 25-288): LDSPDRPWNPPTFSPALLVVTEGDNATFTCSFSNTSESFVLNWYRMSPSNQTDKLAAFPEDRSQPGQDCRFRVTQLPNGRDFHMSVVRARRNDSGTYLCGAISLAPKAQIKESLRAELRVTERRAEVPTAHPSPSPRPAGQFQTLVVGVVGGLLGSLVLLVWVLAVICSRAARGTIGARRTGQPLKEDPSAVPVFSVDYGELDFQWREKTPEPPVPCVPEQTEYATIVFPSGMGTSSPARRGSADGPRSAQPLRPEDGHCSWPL

SMILES	IC50 [µM]
Cc1cccc(C[C@@H]2NC(=O)[C@H](CC(=O)O)NC(=O)[C@H](Cc3ccc(OCC(=O)O)cc3)NC(=O)[C@H](CN)NC(=O)CSC[C@@H](C(=O)N[C@@H](CCCCN)C(=O)NCCCCCCCCCCC(=O)O)NC(=O)[C@H]([C@@H](C)O)NC(=O)[C@H](C(C)C)NC(=O)[C@H](CC3CCCCC3)NC(=O)[C@H](Cc3cnc[nH]3)NC(=O)[C@@H](CC(C)C)NC(=O)[C@H](CCCN)NC(=O)[C@H](C(C)C)NC(=O)[C@H](Cc3ccc(-c4ccccc4)cc3)NC(=O)[C@H](C(C)C)NC2=O)c1 [Compound 1110] ({CH2CO}-[Dap]Y(Carboxymethyl)D[Phe(3-Me)]V[Bip]V[Orn][dL]H[Cha]VTCK[Aun]-OH; thioether N-14)	0.033
CC(C)C[C@H]1NC(=O)[C@H](CCCN)NC(=O)[C@H](C(C)C)NC(=O)[C@H](Cc2ccc(-c3ccccc3)cc2)NC(=O)[C@H](C(C)C)NC(=O)[C@H](Cc2c[nH]c3ccccc23)NC(=O)[C@H](CC(=O)O)NC(=O)[C@H](Cc2ccc(OCC(=O)O)cc2)NC(=O)[C@H](C(C)O)NC(=O)CSC[C@@H](C(=O)N[C@@H](CCN)C(=O)NCCOCCOCC(=O)N[C@@H](CCC(=O)NCCCCCCCCCCC(=O)O)C(=O)O)NC(=O)[C@H](CCN)NC(=O)[C@H](C(C)O)NC(=O)[C@H](CC2CCCCC2)NC(=O)[C@H](CCN)NC1=O (stereo partly drawn) [Compound 3678] ({CH2CO}-[Thr(3ξ)]Y(Carboxymethyl)DWV[Bip]V[Orn][dL][Dab][Cha][Thr(3ξ)][Dab]C[Dab][AEEA][γGlu][Aun]-OH; thioether N-14)	0.0092
Cc1cccc(C[C@@H]2NC(=O)[C@H](CC(=O)O)NC(=O)[C@H](Cc3ccc(OCC(=O)O)cc3)NC(=O)[C@H](CCCNC(=N)N)NC(=O)CSC[C@@H](C(=O)N[C@@H](CCN)C(=O)NCCCCCCCCCCC(=O)O)NC(=O)[C@H]([C@@H](C)O)NC(=O)[C@H](C(C)(C)F)NC(=O)[C@H](CC3CCCCC3)NC(=O)[C@H](CCN)NC(=O)[C@@H](CC(C)C)NC(=O)[C@H](CCCN)NC(=O)[C@H](Cc3ccc(O)cc3)NC(=O)[C@H](Cc3ccc(-c4ccccc4)cc3)NC(=O)[C@H](Cc3ccc(O)cc3)NC2=O)c1 [Compound 2126] ({CH2CO}-RY(Carboxymethyl)D[Phe(3-Me)]Y[Bip]Y[Orn][dL][Dab][Cha][Val(3-F)]TC[Dab][Aun]-OH; thioether N-14)	0.0357
CC(C)C[C@H]1NC(=O)[C@H](CCCN)NC(=O)[C@H](Cc2ccc(O)cc2)NC(=O)[C@H](Cc2ccc(-c3ccccc3)cc2)NC(=O)[C@H](Cc2ccc(OCC(=O)O)cc2)NC(=O)[C@H](Cc2cccc(C(F)(F)F)c2)NC(=O)[C@H](CC(=O)O)NC(=O)[C@H](Cc2ccc(OCC(=O)O)cc2)NC(=O)[C@H](CN)NC(=O)CSC[C@@H](C(=O)N[C@@H](CCN)C(=O)NCCOCCOCC(=O)NCCCCCCCCCCC(=O)O)NC(=O)[C@H](CCCN)NC(=O)[C@H](C(C)C)NC(=O)[C@H](CC2CCCCC2)NC(=O)[C@H](CCN)NC1=O [Compound 1287] ({CH2CO}-[Dap]Y(Carboxymethyl)D[Phe(3-CF3)]Y(Carboxymethyl)[Bip]Y[Orn][dL][Dab][Cha]V[Orn]C[Dab][AEEA][Aun]-OH; thioether N-14)	0.0082
CC(=O)NCCCC[C@@H]1NC(=O)CSC[C@@H](C(=O)N[C@@H](CCCN)C(=O)N[C@@H](CO)C(=O)NCCCCCCCCCCCC(=O)O)NC(=O)[C@H](CO)NC(=O)[C@H](C(C)C)NC(=O)[C@H](CC2CCCCC2)NC(=O)[C@H](CCCNC(=N)N)NC(=O)[C@@H](CC(C)C)NC(=O)[C@H](CCCN)NC(=O)[C@H](CCCNC(=N)N)NC(=O)[C@H](Cc2ccc(-c3ccccc3)cc2)NC(=O)[C@H](C(C)C)NC(=O)[C@H](Cc2cccc(C)c2)NC(=O)[C@H](CC(=O)O)NC(=O)[C@H](Cc2ccc(OCC(=O)O)cc2)NC1=O [Compound 3577] ({CH2CO}-K(Ac)Y(Carboxymethyl)D[Phe(3-Me)]V[Bip]R[Orn][dL]R[Cha]VSC[Orn]S[12Ado]-OH; thioether N-14)	0.0311
CC(C)C[C@@H]1NC(=O)[C@H](Cc2c[nH]c3ccccc23)NC(=O)[C@H](CC(=O)O)NC(=O)[C@H](Cc2ccc(OCC(=O)O)cc2)NC(=O)[C@H](C(C)O)NC(=O)CSC[C@@H](C(=O)N[C@@H](CCN)C(=O)NCCCCCCCCCCC(=O)O)NC(=O)[C@H](CCCN)NC(=O)[C@H](C(C)O)NC(=O)[C@H](CC2CCCCC2)NC(=O)[C@H](CCN)NC(=O)[C@@H](CC(C)C)NC(=O)[C@H](CCCN)NC(=O)[C@H](C(C)C)NC(=O)[C@H](Cc2ccc(-c3ccccc3)cc2)NC1=O (stereo partly drawn) [Compound 3686] ({CH2CO}-[Thr(3ξ)]Y(Carboxymethyl)DWL[Bip]V[Orn][dL][Dab][Cha][Thr(3ξ)][Orn]C[Dab][Aun]-OH; thioether N-14)	0.0276

Continued by falling IC50, values first:

IC50 [µM]	SMILES
0.2	CC(C)C[C@H]1NC(=O)[C@H](CCCN)NC(=O)[C@H](Cc2ccc(C(=O)O)cc2)NC(=O)[C@H](Cc2ccc(-c3ccccc3)cc2)NC(=O)[C@H](Cc2ccc(C(=O)O)cc2)NC(=O)[C@H](Cc2cccc(C(F)(F)F)c2)NC(=O)[C@H](CC(=O)O)NC(=O)[C@H](Cc2ccc(OCC(=O)O)cc2)NC(=O)[C@H](CC2CCCCC2)NC(=O)CSC[C@@H](C(=O)N[C@@H](CCN)C(=O)NCCOCCOCC(=O)NCCOCCOCC(=O)NCCCCCCCCCCCCCCC(=O)O)NC(=O)[C@H](CO)NC(=O)[C@H](C(C)(C)O)NC(=O)[C@H](CC2CCCCC2)NC(=O)[C@H](CCN)NC1=O [Compound 3830] ({CH2CO}-[Cha]Y(Carboxymethyl)D[Phe(3-CF3)][Phe(4-COOH)][Bip][Phe(4-COOH)][Orn][dL][Dab][Cha][Val(3-OH)]SC[Dab][AEEA][AEEA]-{NH(CH2)14COOH}; thioether N-14)
0.0079	CC(C)C[C@H]1NC(=O)[C@H](CCCN)NC(=O)[C@H](C(C)C)NC(=O)[C@H](Cc2ccc(-c3ccccc3)cc2)NC(=O)[C@H](C(C)C)NC(=O)[C@H](Cc2c[nH]c3ccccc23)NC(=O)[C@H](CC(=O)O)NC(=O)[C@H](Cc2ccc(OCC(=O)O)cc2)NC(=O)[C@H](C(C)O)NC(=O)CSC[C@@H](C(=O)N[C@@H](C)C(=O)NCCOCCOCC(=O)N[C@@H](CCN)C(=O)NCCCCCCCCCCC(=O)O)NC(=O)[C@H](C(C)O)NC(=O)[C@H](C(C)C)NC(=O)[C@H](CC2CCCCC2)NC(=O)[C@H](CCN)NC1=O (stereo partly drawn) [Compound 3029] ({CH2CO}-[Thr(3ξ)]Y(Carboxymethyl)DWV[Bip]V[Orn][dL][Dab][Cha]V[Thr(3ξ)]CA[AEEA][Dab][Aun]-OH; thioether N-14)
0.0017	Cc1cccc(C[C@@H]2NC(=O)[C@H](CC(=O)O)NC(=O)[C@H](Cc3ccc(OCC(=O)O)cc3)NC(=O)[C@H]([C@@H](C)O)NC(=O)CSC[C@@H](C(=O)N[C@@H](CCN)C(=O)NCCOCCOCC(=O)NCCCCCCCCCCC(=O)O)NC(=O)[C@H](CO)NC(=O)[C@H](C(C)(C)O)NC(=O)[C@H](CC3CCCCC3)NC(=O)[C@H](CCN)NC(=O)[C@@H](CC(C)C)NC(=O)[C@H](CCCN)NC(=O)[C@H](Cc3ccc(OCC(=O)O)cc3)NC(=O)[C@H](Cc3ccc(-c4ccccc4)cc3)NC(=O)[C@H](Cc3ccc(OCC(=O)O)cc3)NC2=O)c1 [Compound 2243] ({CH2CO}-TY(Carboxymethyl)D[Phe(3-Me)]Y(Carboxymethyl)[Bip]Y(Carboxymethyl)[Orn][dL][Dab][Cha][Val(3-OH)]SC[Dab][AEEA][Aun]-OH; thioether N-14)
